Results published in PMC6446940 (ChemMedChem, 2018).
Where two headings read alike, the source gives them in different places.

Assays:
TZM-bl cells = test: Cytotoxicity; format: cell-based; conditions: read-out: TZMb-l CC50; TZM-bl cells, 3 days, MTS; mean ± SD, n=3
MT-2 cells = test: Cytotoxicity; format: cell-based, human; conditions: read-out: MT-2 CC50, MTS, mean ± SD, n=3
[1] = test system: panel of HIV-1 Env pseudoviruses; format: cell-based
human PBMC = test: Cytotoxicity; format: cell-based; conditions: human PBMC, 7 days, MTS
HIV-1LAI = test: Multi-cycle infection assay in PBMC; conditions: read-out: IC50 HIV-1LAI; human PBMC; CXCR4-tropic lab-adapted virus; p24, 7 days
[2] = test system: HIV-1 Env pseudovirus QB726.70M.ENV.C4; test: Single-cycle assay TZM-bl, Env pseudovirus panel
[3] = test system: HIV-1 Env pseudovirus BG505-T332N; test: Single-cycle assay TZM-bl, Env pseudovirus panel
[4] = test system: HIV-1 Env pseudovirus QA790.204I.ENV.C8; test: Single-cycle assay TZM-bl, Env pseudovirus panel
[5] = test system: HIV-1 Env pseudovirus CRF02_AG, clone 251; test: Single-cycle assay TZM-bl, Env pseudovirus panel
[6] = test system: HIV-1 Env pseudovirus 1054.TC4.1499; test: Single-cycle assay TZM-bl, Env pseudovirus panel
[7] = test system: HIV-1 Env pseudovirus ZM109F.PB4; test: Single-cycle assay TZM-bl, Env pseudovirus panel
[8] = test system: HIV-1 Env pseudovirus HIV-00836-2, clone 5; test: Single-cycle assay TZM-bl, Env pseudovirus panel
[9] = test system: HIV-1 Env pseudovirus QD435.100M.ENV.B5; test: Single-cycle assay TZM-bl, Env pseudovirus panel
[10] = test system: HIV-1 Env pseudovirus MI206.W0M.ENV.D1; test: Single-cycle assay, Paired Infant and Maternal Env clones
[11] = test system: HIV-1 Env pseudovirus MJ613.W0M.ENV.A2; test: as above
[12] = test system: HIV-1 Env pseudovirus BL274.W6M.ENV.A3; test: as above
[13] = test system: HIV-1 panel of Paired Infant (B) and Maternal (M) Env Molecular Clones; test: Single-cycle assay, means over Paired Infant and Maternal Env clones
Cytotoxicity [14] = format: cell-based; conditions: human, TZM-bl cells, TZMb-l CC50, TZM-bl cells, 3 days, MTS; mean ± SD, n=3
HIV-1IIIB = test: Multi-cycle infection assay in MT-2 cells; format: cell-based; conditions: read-out: MT-2 IC50, p24, mean ± SD, n=3
Cytotoxicity [15] = format: cell-based, human; conditions: human, MT-2 cells, MT-2 CC50, MT-2 cells, MTS; mean ± SD, n=3
Cytotoxicity [16] = format: cell-based, human; conditions: human, freshly isolated and stimulated uninfected PBMC
[17] = test system: HIV-1 Env pseudovirus HIV-25925-2, clone 22; test: Single-cycle assay TZM-bl, Env pseudovirus panel
[18] = Human immunodeficiency virus 1, read-out: IC50 Mean ± SEM: Infant (B)
[19] = Human immunodeficiency virus 1, read-out: IC50 Mean ± SEM: Mother (M)
[20] = Human immunodeficiency virus 1, read-out: IC50 Mean ± SEM: Overall (n=10)

Row | SMILES | CC50 (TZM-bl cells) [µM] | CC50 (MT-2 cells) [µM] | CC50 at 3 days (Cytotoxicity [14]) [µM] | IC50 (HIV-1IIIB) [µM] | CC50 at 7 days (Cytotoxicity [16]) [µM] | IC50 ([2]; TZM-bl) [µM] | IC50 ([3]; TZM-bl) [µM] | IC50 ([4]; TZM-bl) [nM] | IC50 ([5]; TZM-bl) [µM] | IC50 ([6]; TZM-bl) [µM] | IC50 ([7]; TZM-bl) [µM] | IC50 ([8]; TZM-bl) [µM] | IC50 [17] [µM] | IC50 ([9]; TZM-bl) [nM] | IC50 [10] [µM] | IC50 [11] [µM] | IC50 [12] [µM] | IC50 [13, 18] [M] | IC50 [13, 19] [M] | IC50 [13, 20] [M] | further results
1 | Cc1nc([C@@H](CN)NC(=O)c2ccc(-c3ccc(F)c(F)c3)[nH]2)sc1CO (single isomer, unassigned) [NBD-14113, reference compound] | 84.1 ± 1.3 | 96.8 ± 1.8 | – | – | – | – | – | – | – | – | – | – | – | – | – | – | – | – | – | – | IC50 ([1]; read-out: IC50 Mean ± SEM: Overall (n=34), mean over 34 HIV-1 Env pseudoviruses): 3.9 ± 0.17 µM; IC50 ([1]; read-out: IC50 Mean ± SEM: Subtype A (n=5), mean over subtype A pseudoviruses): 3.44 ± 0.36 µM; IC50 ([1]; read-out: IC50 Mean ± SEM: Subtype B (n=10), mean over subtype B pseudoviruses): 3.79 ± 0.18 µM; IC50 ([1]; read-out: IC50 Mean ± SEM: Subtype C (n=7), mean over subtype C pseudoviruses): 4.04 ± 0.43 µM; IC50 ([1]; read-out: IC50 Mean ± SEM: Subtype D (n=3), mean over subtype D pseudoviruses): 3.5 ± 0.75 µM; CC50 (human PBMC): 47.1 ± 2.6 µM; IC50 (HIV-1LAI): 3.8 ± 1.1 µM; IC50 ([2]; subtype A, NIH # 11888, QB726.70M.ENV.C4, TZM-bl cells): 4 ± 0.2 µM; IC50 ([3]; subtype A, BG505-T332N, TZM-bl cells): 3.3 ± 0.2 µM; IC50 ([4]; subtype A1/D, NIH # 11903, QA790.204I.ENV.C8, TZM-bl cells): 4300 ± 100 nM; IC50 ([5]; subtype AG, NIH # 11595, CRF02_AG, clone 251, TZM-bl cells): 3 ± 0.2 µM; IC50 ([6]; subtype B, NIH # 11561, 1054.TC4.1499, TZM-bl cells): 3.6 ± 0.2 µM; IC50 ([7]; subtype C, NIH # 11314, ZM109F.PB4, TZM-bl cells): 1.9 ± 0.1 µM; IC50 ([8]; subtype C, NIH # 11500, HIV-00836-2, clone 5, TZM-bl cells): 4.3 ± 0.4 µM; IC50 ([9]; subtype D, NIH # 11916, QD435.100M.ENV.B5, TZM-bl cells): 2200 ± 300 nM; IC50 ([10]; subtype A, NIH # 11531-M (maternal), MI206.W0M.ENV.D1): 3.4 ± 0.2 µM; IC50 ([11]; subtype A, NIH # 11534-M (maternal), MJ613.W0M.ENV.A2): 4.9 ± 0.2 µM; IC50 ([12]; subtype A, NIH # 11525-B (infant), BL274.W6M.ENV.A3): 5.7 ± 0.3 µM; IC50 ([13]; read-out: IC50 Mean ± SEM: Infant (B), mean over infant clones): 4.3e-06 ± 5e-07 M; IC50 ([13]; read-out: IC50 Mean ± SEM: Mother, mean over maternal clones): 4e-06 ± 4e-07 M
2 | Cc1nc(C(CN)NC(=O)c2ccc(-c3ccc4c(c3)OCO4)[nH]2)sc1CO (stereo not drawn) [NBD-14110, N-(2-amino-1-(5-(hydroxymethyl)-4-methylthiazol-2-yl)ethyl)-5-(benzo[d][1,3]dioxol-5-yl)-1H-pyrrole-2-carboxamide] | – | – | 146 ± 7.6 | 3.8 ± 1.4 | 62.8 ± 2.9 | 3.7 ± 0.3 | 4.2 ± 0.5 | 2400 ± 200 | 2.5 ± 0.1 | 4.2 ± 0.4 | 4.9 ± 0.1 | 1.7 ± 0.1 | 4.7 ± 0.1 | 2400 ± 200 | 4.7 ± 0.2 | 4.9 ± 0.1 | 7.2 ± 0.1 | 4.8e-06 ± 8e-07 | 5.2e-06 ± 6e-07 | 5e-06 ± 5e-07 | CC50 at 4 days (Cytotoxicity [15]): 193 ± 6.3 µM
3 | NCC(NC(=O)c1ccc(-c2ccc3c(c2)OCO3)[nH]1)c1ncc(CO)s1 (stereo not drawn) [NBD-14123, N-(2-amino-1-(5-(hydroxymethyl)thiazol-2-yl)ethyl)-5-(benzo[d][1,3]dioxol-5-yl)-1H-pyrrole-2-carboxamide] | – | – | 142 ± 2.6 | – | 61.3 ± 4 | 3.5 ± 0.1 | 4 ± 0.5 | 1400 ± 200 | 3.1 ± 0.2 | 2.4 ± 0.3 | 3 ± 0.2 | 3.2 ± 0.2 | 5.6 ± 0.3 | 3500 ± 300 | 3.4 ± 0.3 | 4 ± 0.1 | 5.7 ± 0.3 | 4.2e-06 ± 6e-07 | 4.1e-06 ± 4e-07 | 4.2e-06 ± 3e-07 | CC50 at 4 days (Cytotoxicity [15]): 192 ± 2.6 µM
4 | CNCC(NC(=O)c1ccc(-c2ccc3c(c2)OCO3)[nH]1)c1nc(CO)cs1 (stereo not drawn) [NBD-14159, 5-(benzo[d][1,3]dioxol-5-yl)-N-(1-(4-(hydroxymethyl)thiazol-2-yl)-2-(methylamino)ethyl)-1H-pyrrole-2-carboxamide] | 95.8 ± 1.4 | 180 ± 2 | – | 2.98 ± 0.1 | 68.3 ± 5 | 2.7 ± 0.2 | 3.3 ± 0.2 | 2100 ± 100 | 3.5 ± 0.1 | 4.1 ± 0.1 | 3.3 ± 0.1 | 4.9 ± 0.3 | 4.2 ± 0.5 | 3300 ± 200 | 3.4 ± 0.2 | 3.1 ± 0.3 | 4.2 ± 0.5 | 4e-06 ± 3e-07 | 3.8e-06 ± 5e-07 | 3.9e-06 ± 3e-07 | –
